The source of these data is publication PMC7827406, “Structure–Activity Relationship (SAR) Study of Spautin-1 to Entail the Discovery of Novel NEK4 Inhibitors” (International Journal of Molecular Sciences, 2021).

Common to all, as to experiment: biochemical
Design in all cases: Eurofins KinaseProfiler full panel at Km ATP, residual kinase activity (%) relative to DMSO

Experiment [1] has as its target T1, TrkA(h) (Homo sapiens, UniProt P04629).
T1 construct: gene NTRK1
Put shortly: (§1)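 Radiometric kinase activity assays were run with ATP at Km and compounds at 10 µM, and remaining activity (%) was reported. A separate competitive binding screen measured DNA-tagged kinase displaced from immobilized active-site ligands by qPCR, giving percent kinase still bound at 10 µM compound in DMSO.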

Experiment [2] concerns the target Fgr(h) (Homo sapiens, UniProt P09769). In a few lines:
as §1

The target of experiment [3] is EphA5(h) (Homo sapiens, UniProt P54756). Put shortly: as §1
Chain of EphA5(h) (P54756 whole entry): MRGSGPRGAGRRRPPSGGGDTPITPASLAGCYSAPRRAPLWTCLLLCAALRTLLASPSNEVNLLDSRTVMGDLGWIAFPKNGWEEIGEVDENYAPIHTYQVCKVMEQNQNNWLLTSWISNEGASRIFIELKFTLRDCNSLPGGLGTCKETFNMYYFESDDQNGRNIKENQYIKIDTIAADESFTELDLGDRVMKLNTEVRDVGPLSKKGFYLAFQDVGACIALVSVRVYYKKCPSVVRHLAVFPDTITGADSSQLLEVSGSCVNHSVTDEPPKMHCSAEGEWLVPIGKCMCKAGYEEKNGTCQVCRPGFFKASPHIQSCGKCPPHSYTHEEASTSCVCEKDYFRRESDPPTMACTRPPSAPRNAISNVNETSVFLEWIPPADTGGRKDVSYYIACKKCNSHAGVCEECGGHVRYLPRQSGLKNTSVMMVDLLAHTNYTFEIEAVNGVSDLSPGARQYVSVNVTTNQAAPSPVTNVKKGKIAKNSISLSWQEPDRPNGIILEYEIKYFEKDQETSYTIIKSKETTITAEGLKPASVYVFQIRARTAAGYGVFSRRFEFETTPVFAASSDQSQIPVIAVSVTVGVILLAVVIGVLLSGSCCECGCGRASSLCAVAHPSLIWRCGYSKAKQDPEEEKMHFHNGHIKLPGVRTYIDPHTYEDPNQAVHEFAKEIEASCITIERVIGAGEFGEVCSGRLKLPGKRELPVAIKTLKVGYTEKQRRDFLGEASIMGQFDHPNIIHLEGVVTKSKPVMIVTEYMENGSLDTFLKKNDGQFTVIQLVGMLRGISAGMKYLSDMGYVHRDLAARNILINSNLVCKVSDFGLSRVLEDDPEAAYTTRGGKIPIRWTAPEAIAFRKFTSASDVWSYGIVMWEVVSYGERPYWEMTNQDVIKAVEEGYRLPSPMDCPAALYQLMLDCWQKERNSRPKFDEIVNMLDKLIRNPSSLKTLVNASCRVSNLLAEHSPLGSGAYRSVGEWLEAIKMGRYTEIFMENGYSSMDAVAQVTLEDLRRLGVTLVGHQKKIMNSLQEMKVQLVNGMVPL
For experiment [4], the target named is T2, MRCKβ(h) (Homo sapiens, UniProt Q9Y5S2).
T2 construct: gene CDC42BPB
T2 sequence (Q9Y5S2 whole entry): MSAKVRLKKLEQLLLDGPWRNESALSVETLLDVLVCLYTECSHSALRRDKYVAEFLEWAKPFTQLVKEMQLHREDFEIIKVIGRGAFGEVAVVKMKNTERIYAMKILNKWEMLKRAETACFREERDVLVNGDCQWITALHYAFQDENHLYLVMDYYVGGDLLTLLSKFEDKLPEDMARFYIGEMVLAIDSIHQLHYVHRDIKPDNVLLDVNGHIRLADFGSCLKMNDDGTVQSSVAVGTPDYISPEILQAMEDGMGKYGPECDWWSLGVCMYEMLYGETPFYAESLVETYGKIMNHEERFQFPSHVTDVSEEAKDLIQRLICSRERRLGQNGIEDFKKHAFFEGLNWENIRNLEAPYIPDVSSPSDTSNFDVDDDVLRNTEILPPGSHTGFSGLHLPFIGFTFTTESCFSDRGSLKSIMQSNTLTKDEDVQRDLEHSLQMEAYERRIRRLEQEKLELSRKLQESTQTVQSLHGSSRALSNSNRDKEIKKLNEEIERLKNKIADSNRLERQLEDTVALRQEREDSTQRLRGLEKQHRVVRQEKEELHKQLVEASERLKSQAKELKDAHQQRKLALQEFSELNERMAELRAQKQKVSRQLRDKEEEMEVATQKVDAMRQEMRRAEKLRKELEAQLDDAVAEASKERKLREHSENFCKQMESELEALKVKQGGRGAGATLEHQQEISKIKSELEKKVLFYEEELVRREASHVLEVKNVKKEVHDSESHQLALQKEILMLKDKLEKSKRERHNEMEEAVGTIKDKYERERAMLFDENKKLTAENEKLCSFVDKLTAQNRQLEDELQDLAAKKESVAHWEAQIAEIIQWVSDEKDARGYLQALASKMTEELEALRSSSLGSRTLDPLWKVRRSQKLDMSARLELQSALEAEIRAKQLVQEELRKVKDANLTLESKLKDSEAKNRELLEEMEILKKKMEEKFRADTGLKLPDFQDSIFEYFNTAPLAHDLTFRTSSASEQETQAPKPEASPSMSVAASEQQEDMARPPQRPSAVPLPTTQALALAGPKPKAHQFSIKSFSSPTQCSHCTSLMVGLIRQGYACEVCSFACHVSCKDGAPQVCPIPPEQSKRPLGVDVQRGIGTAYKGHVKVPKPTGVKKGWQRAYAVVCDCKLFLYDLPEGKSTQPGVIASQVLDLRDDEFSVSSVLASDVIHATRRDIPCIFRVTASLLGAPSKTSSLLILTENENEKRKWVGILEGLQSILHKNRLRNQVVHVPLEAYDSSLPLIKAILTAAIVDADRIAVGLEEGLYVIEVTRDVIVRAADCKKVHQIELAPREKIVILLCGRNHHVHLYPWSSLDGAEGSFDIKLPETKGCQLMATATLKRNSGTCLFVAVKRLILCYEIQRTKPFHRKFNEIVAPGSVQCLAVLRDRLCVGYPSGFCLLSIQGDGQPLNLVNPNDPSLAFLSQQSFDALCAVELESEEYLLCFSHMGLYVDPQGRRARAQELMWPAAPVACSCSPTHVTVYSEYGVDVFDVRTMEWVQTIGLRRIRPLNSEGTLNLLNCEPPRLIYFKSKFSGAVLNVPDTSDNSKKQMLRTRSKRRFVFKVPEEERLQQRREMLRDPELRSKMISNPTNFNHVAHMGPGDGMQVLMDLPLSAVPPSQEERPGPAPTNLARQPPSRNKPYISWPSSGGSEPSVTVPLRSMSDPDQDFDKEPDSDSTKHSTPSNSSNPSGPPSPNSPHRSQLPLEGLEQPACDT
In a few lines: as §1

In experiment [5] the target is T3, PDHK4(h) (Homo sapiens, UniProt Q16654).
T3 construct: gene PDK4
T3 sequence (Q16654 whole entry): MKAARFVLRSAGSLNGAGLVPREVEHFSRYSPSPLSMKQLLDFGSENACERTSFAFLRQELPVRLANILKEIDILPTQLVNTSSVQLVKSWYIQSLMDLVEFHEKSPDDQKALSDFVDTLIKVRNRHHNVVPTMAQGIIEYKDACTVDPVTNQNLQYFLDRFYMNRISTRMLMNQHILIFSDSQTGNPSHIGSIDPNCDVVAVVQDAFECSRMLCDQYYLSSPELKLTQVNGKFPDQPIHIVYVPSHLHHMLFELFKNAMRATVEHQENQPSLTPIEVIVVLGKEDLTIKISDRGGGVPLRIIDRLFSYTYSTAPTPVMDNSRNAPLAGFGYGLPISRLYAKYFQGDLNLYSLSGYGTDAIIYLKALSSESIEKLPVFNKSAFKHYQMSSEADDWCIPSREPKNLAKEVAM
Put shortly:
as §1

Experiment [6] concerns the target CDK9/cyclin T1(h) (Homo sapiens, UniProt P50750). In a few lines:
as §1

The target of experiment [7] is T4, MST3(h) (Homo sapiens, UniProt Q9Y6E0).
T4 construct: gene STK24
In a few lines:
as §1

Experiment [8] addresses T5, TSSK1(h) (Homo sapiens, UniProt Q9BXA7).
T5 construct: gene TSSK1B
T5 sequence (Q9BXA7 1-367): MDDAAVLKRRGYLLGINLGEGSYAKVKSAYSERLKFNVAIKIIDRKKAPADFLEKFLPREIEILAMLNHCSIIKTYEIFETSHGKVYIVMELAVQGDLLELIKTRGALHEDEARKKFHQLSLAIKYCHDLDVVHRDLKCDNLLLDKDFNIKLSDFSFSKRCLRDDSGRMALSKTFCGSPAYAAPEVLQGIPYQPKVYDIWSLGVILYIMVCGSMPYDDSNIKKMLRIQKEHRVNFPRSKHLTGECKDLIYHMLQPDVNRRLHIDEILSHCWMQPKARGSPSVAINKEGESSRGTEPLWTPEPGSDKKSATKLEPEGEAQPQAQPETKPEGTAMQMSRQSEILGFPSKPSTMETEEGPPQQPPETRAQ
In a few lines: as §1

The target of experiment [9] is T6, EphA1(h) (Homo sapiens, UniProt P21709).
T6 sequence (P21709 1-976): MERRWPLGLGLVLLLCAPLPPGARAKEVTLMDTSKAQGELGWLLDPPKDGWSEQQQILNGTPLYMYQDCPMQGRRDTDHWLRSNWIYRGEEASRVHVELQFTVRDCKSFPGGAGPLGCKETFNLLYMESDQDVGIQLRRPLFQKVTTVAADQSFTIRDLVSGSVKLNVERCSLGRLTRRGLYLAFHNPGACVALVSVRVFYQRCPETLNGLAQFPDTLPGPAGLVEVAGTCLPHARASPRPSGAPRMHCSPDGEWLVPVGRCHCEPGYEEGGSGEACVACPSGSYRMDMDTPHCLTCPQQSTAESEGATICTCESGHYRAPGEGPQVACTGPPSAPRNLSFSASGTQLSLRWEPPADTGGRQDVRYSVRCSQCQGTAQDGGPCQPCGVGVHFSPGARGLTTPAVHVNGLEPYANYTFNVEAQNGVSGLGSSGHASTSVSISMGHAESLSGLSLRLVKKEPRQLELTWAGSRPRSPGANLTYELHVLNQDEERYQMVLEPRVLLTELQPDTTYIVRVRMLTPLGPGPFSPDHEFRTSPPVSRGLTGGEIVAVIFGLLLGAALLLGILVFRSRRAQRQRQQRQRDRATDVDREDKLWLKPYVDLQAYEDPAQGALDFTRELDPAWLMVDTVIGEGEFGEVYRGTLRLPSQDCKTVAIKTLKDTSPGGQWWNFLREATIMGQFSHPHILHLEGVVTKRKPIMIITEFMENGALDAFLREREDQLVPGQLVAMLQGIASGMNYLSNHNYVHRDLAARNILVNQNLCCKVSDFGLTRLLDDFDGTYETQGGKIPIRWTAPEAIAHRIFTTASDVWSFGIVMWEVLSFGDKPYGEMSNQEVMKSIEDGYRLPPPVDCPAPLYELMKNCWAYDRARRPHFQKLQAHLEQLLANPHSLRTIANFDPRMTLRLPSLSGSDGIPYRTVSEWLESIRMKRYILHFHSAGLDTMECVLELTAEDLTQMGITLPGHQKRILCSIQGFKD
In a few lines:
as §1

Experiment [10] has as its target SLK(h) (Homo sapiens, UniProt Q9H2G2). Put shortly: as §1
The target in experiment [11] is Lck(h) activated (Homo sapiens, UniProt P06239). Put shortly:
as §1

The mark [12] stands for this setting: read-out: Residual activity (%) 5at.
The mark [13] stands for this setting: read-out: Residual activity (%) 5ay.
[14] abbreviates: read-out: Residual activity (%) 5as.
Setting [15] is: read-out: Residual activity (%) Spautin-1 5aa.

Molecules are shown by their SMILES. Where two headings read alike, the source gives them in different places.

Chain of Fgr(h) (P09769 whole entry): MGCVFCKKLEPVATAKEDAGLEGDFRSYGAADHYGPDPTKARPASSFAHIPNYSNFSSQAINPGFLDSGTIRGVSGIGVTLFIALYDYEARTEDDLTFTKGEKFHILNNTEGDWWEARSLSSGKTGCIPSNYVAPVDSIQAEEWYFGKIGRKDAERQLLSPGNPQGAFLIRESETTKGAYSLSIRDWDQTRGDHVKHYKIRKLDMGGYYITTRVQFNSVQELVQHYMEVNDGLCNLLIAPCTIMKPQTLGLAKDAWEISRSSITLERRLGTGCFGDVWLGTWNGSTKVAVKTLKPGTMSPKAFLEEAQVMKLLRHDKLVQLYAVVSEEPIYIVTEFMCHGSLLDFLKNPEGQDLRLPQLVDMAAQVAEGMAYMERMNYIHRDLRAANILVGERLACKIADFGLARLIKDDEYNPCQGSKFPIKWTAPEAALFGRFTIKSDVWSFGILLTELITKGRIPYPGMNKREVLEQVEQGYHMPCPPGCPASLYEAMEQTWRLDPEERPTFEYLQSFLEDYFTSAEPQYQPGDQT
Chain of CDK9/cyclin T1(h) (P50750 whole entry): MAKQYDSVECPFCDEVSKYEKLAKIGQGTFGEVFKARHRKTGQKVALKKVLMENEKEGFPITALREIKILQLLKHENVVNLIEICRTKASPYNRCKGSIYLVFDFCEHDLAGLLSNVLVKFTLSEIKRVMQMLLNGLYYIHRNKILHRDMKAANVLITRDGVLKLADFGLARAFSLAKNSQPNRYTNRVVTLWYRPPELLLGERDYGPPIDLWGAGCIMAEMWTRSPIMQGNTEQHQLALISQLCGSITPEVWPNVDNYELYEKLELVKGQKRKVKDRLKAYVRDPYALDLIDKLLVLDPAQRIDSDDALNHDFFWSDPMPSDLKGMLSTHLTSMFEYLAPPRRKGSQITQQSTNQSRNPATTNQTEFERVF
Chain of CDK9/cyclin T1(h) (O60563 whole entry partner): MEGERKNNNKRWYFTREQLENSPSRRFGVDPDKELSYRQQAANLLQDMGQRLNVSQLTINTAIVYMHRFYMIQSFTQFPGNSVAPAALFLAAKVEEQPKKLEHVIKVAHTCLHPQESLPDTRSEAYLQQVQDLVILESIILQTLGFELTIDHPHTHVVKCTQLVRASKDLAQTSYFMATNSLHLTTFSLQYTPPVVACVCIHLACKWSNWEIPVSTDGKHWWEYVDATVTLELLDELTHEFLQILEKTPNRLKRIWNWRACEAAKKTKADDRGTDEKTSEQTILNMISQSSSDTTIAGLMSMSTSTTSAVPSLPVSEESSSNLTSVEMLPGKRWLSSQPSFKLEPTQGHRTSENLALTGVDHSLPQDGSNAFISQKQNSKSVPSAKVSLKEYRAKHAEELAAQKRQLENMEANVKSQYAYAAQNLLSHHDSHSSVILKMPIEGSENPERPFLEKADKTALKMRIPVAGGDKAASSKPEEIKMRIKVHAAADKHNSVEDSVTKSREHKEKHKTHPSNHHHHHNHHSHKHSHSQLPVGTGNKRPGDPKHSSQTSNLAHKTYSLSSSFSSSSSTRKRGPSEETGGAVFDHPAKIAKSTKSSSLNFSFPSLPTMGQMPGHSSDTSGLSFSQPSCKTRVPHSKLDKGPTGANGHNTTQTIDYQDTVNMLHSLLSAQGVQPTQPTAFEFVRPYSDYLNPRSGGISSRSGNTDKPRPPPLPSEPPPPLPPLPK

Turning to `Fc1ccc2ncnc(NCCc3ccc(Cl)cc3)c2c1` [5at, N-[2-(4-Chlorophenyl)Ethyl]-6-Fluoro-4-Quinazolinamine], the remaining activity at 10 µM in [1] (setting [12]) was 60%; in experiment [2] (setting [12]), 95%; in [3] (setting [12]) it was 87%; in [4] (setting [12]), 103%; in experiment [5] (setting [12]) it was 101%; in experiment [6] (setting [12]) it was 86%. For the same molecule, the remaining activity at 10 µM came out at 74% in experiment [7] (setting [12]); 77% in [8] (setting [12]); 74% in experiment [9] (setting [12]); 78% in experiment [10] (setting [12]); 91% in [11] (setting [12]).

As for `COc1ccc2ncnc(Nc3cccc(F)c3)c2c1` [5ay, N-(3-Fluorophenyl)-6-Methoxy-4-Quinazolinamine], the remaining activity at 10 µM in experiment [1] (setting [13]) is 70%; in experiment [2] (setting [13]), 90%; in experiment [3] (setting [13]), 95%; in [4] (setting [13]) it was 79%; in experiment [5] (setting [13]) it was 104%; in experiment [6] (setting [13]) it was 100%. Besides, the remaining activity at 10 µM in [7] (setting [13]) came out at 86%; in experiment [8] (setting [13]), 81%; in [9] (setting [13]), 61%; in experiment [10] (setting [13]) it was 70%; in [11] (setting [13]) it was 73%.

Turning to `Fc1ccc(CCNc2ncnc3ccc(F)cc23)cc1` [5as, 6-Fluoro-N-[2-(4-Fluorophenyl)Ethyl]-4-Quinazolinamine], the remaining activity at 10 µM turned out to be 87% in experiment [1] (setting [14]); 114% in experiment [2] (setting [14]); 99% in experiment [3] (setting [14]); 84% in experiment [4] (setting [14]); 102% in experiment [5] (setting [14]); 93% in [6] (setting [14]). The remaining activity at 10 µM in [7] (setting [14]) came out at 89%; in experiment [8] (setting [14]), 82%; in [9] (setting [14]), 66%; in [10] (setting [14]), 77%; in [11] (setting [14]), 100%.

Take `Fc1ccc(CNc2ncnc3ccc(F)cc23)cc1` [5aa, 6-Fluoro-N-(4-fluorobenzyl)-4-Quinazolinamine]: the remaining activity at 10 µM came to 65% in experiment [1] (setting [15]); 112% in experiment [2] (setting [15]); 90% in experiment [3] (setting [15]); 80% in [4] (setting [15]); 106% in [5] (setting [15]); 104% in experiment [6] (setting [15]). For the same molecule, the remaining activity at 10 µM was 80% in [7] (setting [15]); 82% in experiment [8] (setting [15]); 93% in experiment [9] (setting [15]); 98% in [10] (setting [15]); 93% in experiment [11] (setting [15]).
